Test results: paper PMC6449605, “Pyrophosphate Stimulates the Phosphate-Sodium Symporter of Trypanosoma brucei Acidocalcisomes and Saccharomyces cerevisiae Vacuoles” (mSphere, 2019)
Values belong to the compound of their own block, whether it stands above or below them.

Legend:
[1] = molecular target: T1, Pho91p (Saccharomyces cerevisiae, UniProt P27514); assay: two-electrode voltage clamp, Xenopus oocytes; format: cell-based; settings: ND96, room temperature
T1 construct: gene PHO91; full length, cRNA expressed in Xenopus laevis oocytes
T1 sequence (P27514 1-894): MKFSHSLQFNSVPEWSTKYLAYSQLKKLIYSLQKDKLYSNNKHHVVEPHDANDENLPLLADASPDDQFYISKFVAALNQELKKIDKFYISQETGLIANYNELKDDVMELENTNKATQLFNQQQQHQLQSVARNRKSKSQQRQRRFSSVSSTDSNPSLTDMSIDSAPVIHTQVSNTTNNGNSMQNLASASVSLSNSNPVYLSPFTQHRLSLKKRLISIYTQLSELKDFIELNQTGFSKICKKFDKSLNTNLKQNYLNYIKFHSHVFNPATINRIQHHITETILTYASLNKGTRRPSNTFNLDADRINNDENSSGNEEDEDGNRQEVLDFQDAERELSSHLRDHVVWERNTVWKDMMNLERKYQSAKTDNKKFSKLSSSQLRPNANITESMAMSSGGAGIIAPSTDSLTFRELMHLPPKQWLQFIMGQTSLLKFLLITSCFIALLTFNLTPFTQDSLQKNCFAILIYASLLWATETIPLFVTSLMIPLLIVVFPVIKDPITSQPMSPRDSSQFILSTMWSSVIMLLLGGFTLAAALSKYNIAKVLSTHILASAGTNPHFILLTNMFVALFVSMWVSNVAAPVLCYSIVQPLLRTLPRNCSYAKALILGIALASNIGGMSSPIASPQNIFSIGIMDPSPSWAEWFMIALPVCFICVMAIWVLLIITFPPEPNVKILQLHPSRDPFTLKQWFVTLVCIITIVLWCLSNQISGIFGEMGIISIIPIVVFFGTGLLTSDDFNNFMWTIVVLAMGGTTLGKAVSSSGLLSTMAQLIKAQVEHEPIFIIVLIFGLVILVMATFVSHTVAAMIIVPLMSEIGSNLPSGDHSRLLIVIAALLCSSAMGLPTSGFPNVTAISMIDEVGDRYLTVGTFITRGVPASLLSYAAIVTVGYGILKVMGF

[2] = molecular target: T2, TbPho91 (Trypanosoma brucei, UniProt Q383G2); assay: two-electrode voltage clamp, Xenopus oocytes; format: cell-based; settings: activator, modulates 10 mM Pi-evoked current; ND96 pH 7.5; room temperature
T2 construct: full length, cRNA expressed in Xenopus laevis oocytes (also in giant vacuoles of pho91-delta yeast)
T2 sequence (Q383G2 1-728): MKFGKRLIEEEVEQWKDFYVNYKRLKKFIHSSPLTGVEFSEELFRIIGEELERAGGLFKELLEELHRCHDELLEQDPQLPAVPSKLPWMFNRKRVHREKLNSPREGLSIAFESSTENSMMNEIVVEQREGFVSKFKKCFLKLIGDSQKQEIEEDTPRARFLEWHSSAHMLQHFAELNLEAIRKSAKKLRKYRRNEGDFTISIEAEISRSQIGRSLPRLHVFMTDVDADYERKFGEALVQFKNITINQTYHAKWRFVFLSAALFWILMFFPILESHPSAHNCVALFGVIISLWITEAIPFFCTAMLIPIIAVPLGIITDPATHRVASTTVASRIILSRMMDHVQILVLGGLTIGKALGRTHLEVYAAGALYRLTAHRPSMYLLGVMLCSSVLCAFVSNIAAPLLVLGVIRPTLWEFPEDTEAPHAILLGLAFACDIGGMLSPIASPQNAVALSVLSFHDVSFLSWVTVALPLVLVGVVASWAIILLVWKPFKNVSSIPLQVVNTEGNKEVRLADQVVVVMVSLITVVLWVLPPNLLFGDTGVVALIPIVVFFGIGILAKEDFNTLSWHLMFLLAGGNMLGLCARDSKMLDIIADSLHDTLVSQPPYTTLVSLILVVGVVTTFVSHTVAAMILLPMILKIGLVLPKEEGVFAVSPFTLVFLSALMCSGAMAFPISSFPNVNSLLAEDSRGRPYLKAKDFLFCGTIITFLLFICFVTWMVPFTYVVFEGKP

inward current amplitude at 10 mM ([1]; activator, 10 mM Na+/PPi): 447.8 ± 84.1 nA
Compound: O=P(O)(O)OP(=O)(O)O [PPi]

Compound: O=P(O)(O)OP(=O)(O)OP(=O)(O)O [polyP3]
threshold for significant amplification of Na+/Pi current [2]: 200 µM
inward current amplitude at 10 mM ([1]; activator, 10 mM Na+/polyP3): 771.6 ± 168.4 nA

inward current amplitude at 10 mM ([1]; 10 mM Na+/Pi, Na+ co-transported): 146.8 ± 41.6 nA
Compound: O=P(O)(O)O [Pi]
